In ChEMBL document CHEMBL5442379, “ASAP - SARS-CoV-2 nsp3 macrodomain single point” (2024) one finds inhibition data, which are given here for 44 compounds.

One may read the inhibition as the change of the read-out against control, counted positive when it falls.

SMILES strings stand for the structures.

The test concerns the target Replicase polyprotein 1ab (Severe acute respiratory syndrome coronavirus 2) (UniProt P0DTD1).

Description: Functional biochemical assay to identify treatments for viral infectious disease that targets SARS-COV-2 nsp3 macrodomain, whereby the mechanism of action displaces an ADP-Ribose modified peptide from the binding site. Utilizing a time-resolved fluorescence method to measure binding by reading the emitted fluorescence intensity in two wavelengths.

Turning to `CO[C@@H](CNc1ncnc2[nH]ccc12)c1cccc(Cl)c1`, the inhibition runs as follows: (Concentration 50.0 uM, Number of replicates 2.0, Standard deviation 2.381 %) 4.1%; (Concentration 100.0 uM, Number of replicates 2.0, Standard deviation 2.011 %) 14.2%.

For `FC(F)(F)c1nnc2n1CCN(c1ncnc3[nH]ccc13)C2`, the inhibition runs as follows: (Concentration 49.75 uM, Number of replicates 2.0, Standard deviation 1.459 %) -1.97%; (Concentration 99.5 uM, Number of replicates 2.0, Standard deviation 0.538 %) -1%.

With `CN(C[C@H]1CCCN1)C(=O)c1cnn2ccc(C3CCN(C(=O)c4ccccc4)CC3)cc12`, the inhibition reads like this: (Concentration 49.75 uM, Number of replicates 2.0, Standard deviation 0.33 %) -7.47%; (Concentration 99.5 uM, Number of replicates 2.0, Standard deviation 2.559 %) -6.59%.

Consider `O=C(NCc1cc2n(n1)CCCC2)c1cc2cncnc2[nH]1`, for which the inhibition (Concentration 50.0 uM, Number of replicates 4.0, Standard deviation 10.451 %) was determined as 4.17%.

For `Cn1cc([C@H]2CCCCN2c2ncnc3[nH]ccc23)cn1`, the inhibition was 6.39% (Concentration 49.75 uM, Number of replicates 2.0, Standard deviation 3.479 %) and 8.32% (Concentration 99.5 uM, Number of replicates 2.0, Standard deviation 0.865 %).

`Oc1cc(CNc2ncnc3[nH]cnc23)ccn1`: the inhibition (Concentration 50.0 uM, Number of replicates 2.0, Standard deviation 4.588 %) was -0.821% and the inhibition (Concentration 100.0 uM, Number of replicates 2.0, Standard deviation 5.781 %) is -3.73%.

Consider `Cc1c([C@@H](C)Nc2ncnc3[nH]ccc23)cnn1-c1ccccc1`, for which the inhibition runs as follows: (Concentration 49.75 uM, Number of replicates 2.0, Standard deviation 1.063 %) 28.1%; (Concentration 99.5 uM, Number of replicates 2.0, Standard deviation 3.12 %) 41.7%.

For `O=C(c1ncc[nH]1)N1CCC(c2ccn3ncc(C(=O)N4CCCCC4)c3c2)CC1`, the inhibition by setting is: (Concentration 49.75 uM, Number of replicates 2.0, Standard deviation 1.065 %) 18.5%; (Concentration 99.5 uM, Number of replicates 2.0, Standard deviation 3.121 %) 37.2%.

Consider `CC(C)[C@@H](Nc1ncnc2[nH]ccc12)C(=O)N(C)Cc1nnc2n1CCC2`, for which the inhibition runs as follows: (Concentration 49.75 uM, Number of replicates 2.0, Standard deviation 4.689 %) -8.89%; (Concentration 99.5 uM, Number of replicates 2.0, Standard deviation 1.151 %) -6.14%.

On to `CCN(Cc1cccnc1)C(=O)c1ccc(NC(=O)Nc2ccccc2)cc1`, for which the inhibition (Concentration 49.75 uM, Number of replicates 2.0, Standard deviation 4.414 %) came to 3.63% and the inhibition (Concentration 99.5 uM, Number of replicates 2.0, Standard deviation 0.745 %) was -7.09%.

On to `Cc1cnc(C(=O)N(CCC(=O)N2CCNCC2)Cc2cccc(Cl)c2)nc1`, for which the inhibition reads like this: (Concentration 49.75 uM, Number of replicates 2.0, Standard deviation 2.063 %) -1.49%; (Concentration 99.5 uM, Number of replicates 2.0, Standard deviation 9.956 %) 6.47%.

As to `Cn1c(C(=O)NCCn2cccc2)cc2c(=O)n3ccccc3nc21`, the inhibition (Concentration 50.0 uM, Number of replicates 2.0, Standard deviation 2.478 %) is 2.26%.

With `CC(=O)Nc1ccc(S(=O)(=O)NNc2ncnc3sccc23)cc1`, the inhibition (Concentration 50.0 uM, Number of replicates 2.0, Standard deviation 2.273 %) worked out at 5.36%.

For the compound `Cc1cccc(Cl)c1-n1sc(=O)n(CC2CC2)c1=O`, the inhibition (Concentration 50.0 uM, Number of replicates 2.0, Standard deviation 1.233 %) came out at 51.9%.

`Cc1cc(CNC(=O)c2cnn3ccc(C4CCN(C(=O)c5ccccc5)CC4)cc23)n(C)n1`: the inhibition reads like this: (Concentration 49.75 uM, Number of replicates 2.0, Standard deviation 3.014 %) -5.51%; (Concentration 99.5 uM, Number of replicates 2.0, Standard deviation 0.205 %) -8.12%.

Take `Fc1ccc(F)c(Sc2ncnc3[nH]ccc23)c1`: under “Concentration 50.0 uM, Number of replicates 2.0, Standard deviation 6.588 %”, the inhibition is -1.15%.

On to `CN(Cc1cn(C)nn1)C(=O)c1ccc(NC(=O)Nc2ccccc2)cc1`, for which the inhibition by setting is: (Concentration 49.75 uM, Number of replicates 2.0, Standard deviation 0.56 %) 0.883%; (Concentration 99.5 uM, Number of replicates 2.0, Standard deviation 3.63 %) 0.566%.

Take `CN(Cc1cn(C)nn1)C(=O)c1cnn2ccc(C3CCN(C(=O)c4ccccc4)CC3)cc12`: the inhibition came to 2.17% (Concentration 49.75 uM, Number of replicates 2.0, Standard deviation 4.768 %) and 1.34% (Concentration 99.5 uM, Number of replicates 2.0, Standard deviation 1.859 %).

Turning to `Cc1cc(C(F)(F)F)nn1CCNc1ncnc2[nH]ccc12`, the inhibition (Concentration 50.0 uM, Number of replicates 2.0, Standard deviation 3.563 %) was -3.04%; the inhibition (Concentration 50.0 uM, Number of replicates 2.0, Standard deviation 6.31 %) worked out at 4.6%; the inhibition (Concentration 100.0 uM, Number of replicates 2.0, Standard deviation 1.334 %) is -2.21%.

On to `O=C(CCCc1cccnc1)Nc1cnc2[nH]ncc2c1`, for which the inhibition (Concentration 50.0 uM, Number of replicates 2.0, Standard deviation 5.838 %) was -3.65%.

For `O=C(c1ccnnc1O)N1CCC(c2ccn3ncc(C(=O)N4CCCCC4)c3c2)CC1`, the inhibition was -7.59% (Concentration 49.75 uM, Number of replicates 2.0, Standard deviation 0.647 %) and 10.2% (Concentration 99.5 uM, Number of replicates 2.0, Standard deviation 0.871 %).

Consider `c1coc(CNc2ncnc3[nH]cnc23)c1`, for which the inhibition (Concentration 50.0 uM, Number of replicates 2.0, Standard deviation 0.16 %) is 2.63%.

On to `c1nc(N2CCC[C@@H](c3nc4c(s3)CCC4)C2)c2c[nH]nc2n1`, for which the inhibition (Concentration 50.0 uM, Number of replicates 2.0, Standard deviation 1.131 %) worked out at 3.83%.

Regarding `c1ccc2sc([C@@H]3CCCN(c4ncnc5[nH]ccc45)C3)nc2c1`, under “Concentration 50.0 uM, Number of replicates 2.0, Standard deviation 1.364 %”, the inhibition is -0.779%.

`Cc1ncc(NCc2cnc3c(c2)NC(=O)CO3)cc1Cl`: the inhibition (Concentration 50.0 uM, Number of replicates 2.0, Standard deviation 2.461 %) is -0.368%.

On to `C[C@]1(C(=O)O)CCCN1C(=O)c1ncnc2[nH]ccc12`, for which the inhibition is -5.29% (Concentration 50.0 uM, Number of replicates 2.0, Standard deviation 5.501 %) and 5.67% (Concentration 100.0 uM, Number of replicates 2.0, Standard deviation 0.477 %).

As to `O=S(=O)(NC[C@@H]1CCCCO1)c1cn2c(n1)CCCC2`, the inhibition (Concentration 50.0 uM, Number of replicates 2.0, Standard deviation 0.892 %) is -5.39%.

Consider `CC(C)[C@@H](Nc1ncnc2[nH]ccc12)c1nc2ccccc2[nH]1`, for which the inhibition reads like this: (Concentration 49.75 uM, Number of replicates 2.0, Standard deviation 3.253 %) 37.3%; (Concentration 99.5 uM, Number of replicates 2.0, Standard deviation 1.702 %) 52.5%.

Regarding `Cc1cc(N)ncc1C(=O)N1CCC(c2ccn3ncc(C(=O)N4CCCCC4)c3c2)CC1`, the inhibition (Concentration 49.75 uM, Number of replicates 2.0, Standard deviation 0.411 %) was 19.5% and the inhibition (Concentration 99.5 uM, Number of replicates 2.0, Standard deviation 3.667 %) came out at 32.6%.

Turning to `O=C(CCN(Cc1cccc(Cl)c1)C(=O)c1ccccc1F)N1CCNCC1`, the inhibition is -0.625% (Concentration 49.75 uM, Number of replicates 2.0, Standard deviation 0.399 %) and 0.395% (Concentration 99.5 uM, Number of replicates 2.0, Standard deviation 0.282 %).

With `O=C(c1ccccc1)N1CCC(c2ccn3ncc(C(=O)N4CCc5cccnc54)c3c2)CC1`, the inhibition runs as follows: (Concentration 49.75 uM, Number of replicates 2.0, Standard deviation 3.564 %) -4.67%; (Concentration 99.5 uM, Number of replicates 2.0, Standard deviation 0.208 %) -8.02%.

Consider `Cc1[nH]c2ncnc(NC(=O)c3ncn(-c4ccccc4)n3)c2c1C`, for which the inhibition (Concentration 50.0 uM, Number of replicates 2.0, Standard deviation 1.407 %) is 7.1%.

In the case of `O=C(CCN(Cc1cccc(Cl)c1)C(=O)c1ncccc1Cl)N1CCNCC1`, the inhibition turned out to be 2.75% (Concentration 49.75 uM, Number of replicates 2.0, Standard deviation 1.117 %) and 7.52% (Concentration 99.5 uM, Number of replicates 2.0, Standard deviation 8.572 %).

On to `O=C(Nc1ccccc1)Nc1ccc(C(=O)N2CCc3ccncc32)cc1`, for which the inhibition is, setting by setting: (Concentration 49.75 uM, Number of replicates 2.0, Standard deviation 6.741 %) -4.3%; (Concentration 99.5 uM, Number of replicates 2.0, Standard deviation 1.961 %) 0.234%.

With `CN(C(=O)c1cnn2ccc(C3CCN(C(=O)c4ccccc4)CC3)cc12)c1ccccc1O`, the inhibition (Concentration 49.75 uM, Number of replicates 2.0, Standard deviation 2.649 %) is 10% and the inhibition (Concentration 99.5 uM, Number of replicates 2.0, Standard deviation 4.361 %) stood at 15.9%.

Turning to `O=C(c1ccncc1)N1CCC(c2ccn3ncc(C(=O)N4CCCCC4)c3c2)CC1`, the inhibition (Concentration 49.75 uM, Number of replicates 2.0, Standard deviation 1.966 %) is 10.8% and the inhibition (Concentration 99.5 uM, Number of replicates 2.0, Standard deviation 0.415 %) was 26.5%.

For the compound `FC(F)(F)Oc1ccccc1-c1ncnc2[nH]ccc12`, the inhibition is -3.37% (Concentration 50.0 uM, Number of replicates 2.0, Standard deviation 5.274 %) and 2.12% (Concentration 100.0 uM, Number of replicates 2.0, Standard deviation 3.913 %).

Take `O=S(=O)(NC[C@H]1CCOC1)c1cn2c(n1)CCCC2`: the inhibition (Concentration 50.0 uM, Number of replicates 2.0, Standard deviation 7.062 %) was -3.2%.

Turning to `Cc1nc(C(=O)N2CCC(c3ccn4ncc(C(=O)N5CCCCC5)c4c3)CC2)c(C)[nH]1`, the inhibition by setting is: (Concentration 49.75 uM, Number of replicates 2.0, Standard deviation 0.064 %) 16.8%; (Concentration 99.5 uM, Number of replicates 2.0, Standard deviation 4.92 %) 27.5%.

As for `O=C(Nc1ccccc1)Nc1ccc(C(=O)Nc2ncccc2F)cc1`, the inhibition is, setting by setting: (Concentration 49.75 uM, Number of replicates 2.0, Standard deviation 1.252 %) 4.59%; (Concentration 99.5 uM, Number of replicates 2.0, Standard deviation 5.725 %) 10.2%.

For the compound `C#Cc1cccc(NC(=O)CN(C)c2ncnc3[nH]ccc23)c1`, the inhibition (Concentration 50.0 uM, Number of replicates 2.0, Standard deviation 4.462 %) was 4.4%.

Take `O=C(CCN(Cc1cccc(Cl)c1)C(=O)[C@H]1CCOC1)N1CCNCC1`: the inhibition (Concentration 49.75 uM, Number of replicates 2.0, Standard deviation 12.724 %) is 4.08% and the inhibition (Concentration 99.5 uM, Number of replicates 2.0, Standard deviation 2.436 %) was -3.96%.

As for `Cn1cc([C@H]2CSCCN2c2ncnc3[nH]ccc23)cn1`, the inhibition (Concentration 49.75 uM, Number of replicates 2.0, Standard deviation 2.461 %) is -6.49% and the inhibition (Concentration 99.5 uM, Number of replicates 2.0, Standard deviation 0.732 %) was -3.46%.

With `Cn1cc([C@@H](Nc2ncnc3[nH]ccc23)C2CCC2)cn1`, the inhibition is 78.1% (Concentration 49.75 uM, Number of replicates 2.0, Standard deviation 3.794 %) and 91% (Concentration 99.5 uM, Number of replicates 2.0, Standard deviation 1.201 %).
